# In patent publication US20210246122A1, “Triazine Compounds and Uses Thereof” (Aduro Biotech, Inc., priority 2018, published 2021):
# Legend:
# [1] = target: T1, Human cGAS amino acids 155-522 (Homo sapiens, UniProt Q8N884); assay: cGAS activity assay (DNA-activated cGAS, remaining ATP measured by Kinase-Glo Max luciferase assay); type: biochemical; settings: 300 nM purified cGAS, 1 μM dsDNA, 250 μM ATP, 100 μM GTP, 37° C. for 1.25 hours
# T1 construct: hexahistidine tag (N, cleaved yes); made in house; host or cells: E. coli BL21 DE3 Rosetta 2
# How it was run: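 Recombinant human cGAS 155-522 (300 nM) activated by 1 μM annealed dsDNA, run at 37° C for 1.25 h in Tris pH 9 buffer with 250 μM ATP and 100 μM GTP, 5% final DMSO. Compounds from 1 μM in 3- or 4-fold dilutions; remaining ATP read by luciferase luminescence, normalized to no-compound wells.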
# cGAS/STING pathway = assay: THP1 cell-based cGAS/STING pathway activity assay (luciferase reporter linked to IRF-3 activation); settings: Homo sapiens, THP-1; THP1 cells, IRF-3 linked luciferase reporter
# Experimental: A cellular assay can be used to assess the compounds of the invention for their ability to inhibit the cGAS/STING pathway. Cells that express a luciferase-based reporter that is linked to IRF-3 activation are used to determine response as a function of compound concentration. Such an assay is described in Vincent et al., Nature Communications 2017, 8(1):750, doi: 10.1038/s41467-017-00833-9. Compounds of the invention were assessed using similar assay methods in a THP1 cell assay to generate IC50 values as provided in the following Table 8. In this table, activity level “A” indicates an IC50 value less than 20 μM, “B” indicates an IC50 value between 20 and 100 μM, and “C” indicates an IC50 value above the upper limit of the assay (100 μM), or where an IC50 value could not be generated from the data.
# T1 sequence (Q8N884 157-522): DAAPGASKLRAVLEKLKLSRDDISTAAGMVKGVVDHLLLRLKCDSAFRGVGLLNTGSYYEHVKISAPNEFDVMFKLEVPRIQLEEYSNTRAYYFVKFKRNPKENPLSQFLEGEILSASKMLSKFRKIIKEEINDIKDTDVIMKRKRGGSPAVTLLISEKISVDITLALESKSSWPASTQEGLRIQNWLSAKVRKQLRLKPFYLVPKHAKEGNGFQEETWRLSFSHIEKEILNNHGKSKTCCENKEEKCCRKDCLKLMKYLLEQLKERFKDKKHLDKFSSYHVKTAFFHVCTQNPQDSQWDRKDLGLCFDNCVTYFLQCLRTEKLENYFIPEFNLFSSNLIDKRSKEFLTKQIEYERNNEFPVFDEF
IC50 [1],IC50 (cGAS/STING pathway),Structure (SMILES)
< 20 µM,> 100 µM,"COCCOCCOC(=O)[C@H](Cc1ccc(C#N)cc1)Nc1nc(NCc2nc3cc(F)ccc3[nH]2)nc(Nc2cccc(CN3CCN(C(=O)c4nccnc4O)CC3)c2)n1 [TA1070, 2-(2-methoxyethoxy)ethyl (S)-3-(4-cyanophenyl)-2-((4-(((5-fluoro-1H-benzo[d]imidazol-2-yl)methyl)amino)-6-((3-((4-(3-hydroxypyrazine-2-carbonyl)piperazin-1-yl)methyl)phenyl)amino)-1,3,5-triazin-2-yl)amino)propanoate]"
< 20 µM,> 100 µM,"COC(=O)[C@H](Cc1ccc(C#N)cc1)Nc1nc(NCc2nc3cc(F)ccc3[nH]2)nc(Nc2cccc(CN3CCN(C(=O)c4ccnnc4O)CC3)c2)n1 [TA1066, methyl (S)-3-(4-cyanophenyl)-2-((4-(((5-fluoro-1H-benzo[d]imidazol-2-yl)methyl)amino)-6-((3-((4-(3-hydroxypyridazine-4-carbonyl)piperazin-1-yl)methyl)phenyl)amino)-1,3,5-triazin-2-yl)amino)propanoate]"
< 20 µM,> 100 µM,"CN(C)C(=O)[C@H](Cc1ccc(C#N)cc1)Nc1nc(NCc2nc3cc(F)ccc3[nH]2)nc(Nc2cccc(CN3CCN(C(=O)c4nccnc4O)CC3)c2)n1 [TA1021, (S)-3-(4-cyanophenyl)-2-((4-(((5-fluoro-1H-benzo[d]imidazol-2-yl)methyl)amino)-6-((3-((4-(3-hydroxypyrazine-2-carbonyl)piperazin-1-yl)methyl)phenyl)amino)-1,3,5-triazin-2-yl)amino)-N,N-dimethylpropanamide]"
< 20 µM,> 100 µM,"COCCNC(=O)[C@H](Cc1ccc(C#N)cc1)Nc1nc(NCc2nc3cc(F)ccc3[nH]2)nc(Nc2cccc(CN3CCN(C(=O)c4nccnc4O)CC3)c2)n1 [TA1018, (S)-3-(4-cyanophenyl)-2-((4-(((5-fluoro-1H-benzo[d]imidazol-2-yl)methyl)amino)-6-((3-((4-(3-hydroxypyrazine-2-carbonyl)piperazin-1-yl)methyl)phenyl)amino)-1,3,5-triazin-2-yl)amino)-N-(2-methoxyethyl)propanamide]"
< 20 µM,> 100 µM,"COC(=O)[C@@H](Cc1ccc(C#N)cc1)Nc1nc(NCc2nc3cc(F)ccc3[nH]2)nc(Nc2cccc(CN3CCN(C(=O)c4nccnc4O)CC3)c2)n1 [TA1027, methyl (R)-3-(4-cyanophenyl)-2-((4-(((5-fluoro-1H-benzo[d]imidazol-2-yl)methyl)amino)-6-((3-((4-(3-hydroxypyrazine-2-carbonyl)piperazin-1-yl)methyl)phenyl)amino)-1,3,5-triazin-2-yl)amino)propanoate]"
< 20 µM,20 to 100 µM,"COC(=O)[C@H](Cc1ccccc1)Nc1nc(NCc2nc3cc(F)ccc3[nH]2)nc(Nc2cccc(CN3CCN(C(=O)c4nccnc4O)CC3)c2)n1 [TA1065, methyl (4-(((5-fluoro-1H-benzo[d]imidazol-2-yl)methyl)amino)-6-((3-((4-(3-hydroxypyrazine-2-carbonyl)piperazin-1-yl)methyl)phenyl)amino)-1,3,5-triazin-2-yl)-L-phenylalaninate]"
< 20 µM,> 100 µM,"N#Cc1ccc(C[C@H](Nc2nc(NCc3nc4cc(F)ccc4[nH]3)nc(Nc3cccc(CN4CCN(C(=O)c5nccnc5O)CC4)c3)n2)C(=O)O)cc1 [TA1071, (S)-3-(4-cyanophenyl)-2-((4-(((5-fluoro-1H-benzo[d]imidazol-2-yl)methyl)amino)-6-((3-((4-(3-hydroxypyrazine-2-carbonyl)piperazin-1-yl)methyl)phenyl)amino)-1,3,5-triazin-2-yl)amino)propanoic acid]"
